{"source": "ChEMBL document CHEMBL1122966", "about": "“Compactin (ML-236B) and related compounds as potential cholesterol-lowering agents that inhibit HMG-CoA reductase” (J Med Chem, 1985)", "key": {"[1]": {"species_on_record": "Homo sapiens", "assay": "Ability to inhibit cholesterol biosynthesis from [14C]acetate in cultured human skin fibroblasts at the concentration of 10 uM", "format": "functional"}, "[2]": {"species_on_record": "Homo sapiens", "assay": "Ability to inhibit cholesterol biosynthesis from [14C]acetate in cultured human skin fibroblasts at the concentration of 1 uM", "format": "functional"}, "[3]": {"species_on_record": "Homo sapiens", "assay": "Ability to inhibit cholesterol biosynthesis from [14C]acetate in cultured human skin fibroblasts at the concentration of 10 nM", "format": "functional"}, "[4]": {"species_on_record": "Homo sapiens", "assay": "Ability to inhibit cholesterol biosynthesis from [14C]acetate in cultured human skin fibroblasts at the concentration of 1 nM", "format": "functional"}, "[5]": {"molecular_target": "T1, 3-hydroxy-3-methylglutaryl-coenzyme A reductase (Rattus norvegicus, UniProt P51639)", "T1 sequence (P51639 whole entry)": "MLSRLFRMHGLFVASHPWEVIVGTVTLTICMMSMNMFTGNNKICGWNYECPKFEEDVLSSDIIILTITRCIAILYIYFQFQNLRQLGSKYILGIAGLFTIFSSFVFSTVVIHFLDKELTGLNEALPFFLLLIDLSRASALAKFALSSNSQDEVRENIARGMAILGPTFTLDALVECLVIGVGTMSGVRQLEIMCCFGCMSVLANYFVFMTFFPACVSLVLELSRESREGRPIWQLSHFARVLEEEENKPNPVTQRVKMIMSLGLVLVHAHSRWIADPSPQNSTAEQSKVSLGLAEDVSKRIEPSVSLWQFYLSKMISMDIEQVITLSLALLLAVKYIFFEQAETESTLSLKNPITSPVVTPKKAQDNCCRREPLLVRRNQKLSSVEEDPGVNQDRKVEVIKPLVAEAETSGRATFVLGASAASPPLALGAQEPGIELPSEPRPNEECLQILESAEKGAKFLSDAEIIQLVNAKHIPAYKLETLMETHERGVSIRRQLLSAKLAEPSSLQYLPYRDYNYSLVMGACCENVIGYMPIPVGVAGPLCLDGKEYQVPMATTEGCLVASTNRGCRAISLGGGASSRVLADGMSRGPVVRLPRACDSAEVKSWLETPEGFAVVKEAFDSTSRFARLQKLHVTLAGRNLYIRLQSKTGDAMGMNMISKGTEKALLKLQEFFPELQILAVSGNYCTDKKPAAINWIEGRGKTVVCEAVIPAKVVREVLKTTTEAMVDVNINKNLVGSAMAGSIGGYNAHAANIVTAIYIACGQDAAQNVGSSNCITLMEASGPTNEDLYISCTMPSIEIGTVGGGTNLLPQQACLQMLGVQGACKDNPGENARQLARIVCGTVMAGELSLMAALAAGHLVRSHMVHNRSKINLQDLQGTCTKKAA", "assay": "Binding affinity was determined against purified rat liver HMG-coA reductase enzyme"}, "[6]": {"species_on_record": "Homo sapiens", "assay": "Ability to inhibit cholesterol biosynthesis from [14C]acetate in cultured human skin fibroblasts at the concentration of 100 nM", "format": "functional"}}, "note": "pKi: −log10 of the molar value.", "data": [{"smiles": "CC[C@H](C)C(=O)O[C@H]1CCC=C2C=C[C@H](C)[C@H](CC[C@@H]3C[C@@H](O)CC(=O)O3)[C@H]21", "note": "[MEVASTATIN]", "values": [{"measurement": "inhibition at 10 µM", "setting": "[1]", "result": 100, "unit": "%"}, {"measurement": "inhibition at 1 µM", "setting": "[2]", "result": 95, "unit": "%"}, {"measurement": "inhibition at 0.01 µM", "setting": "[3]", "result": 80, "unit": "%"}, {"measurement": "inhibition at 0.001 µM", "setting": "[4]", "result": 50, "unit": "%"}, {"measurement": "pKi", "setting": "[5]", "result": "~9.00"}, {"measurement": "inhibition at 0.1 µM", "setting": "[6]", "result": 90, "unit": "%"}]}]}
